Data as given in patent US20130273557A1 (priority 2010, published 2013).
Entries after “also recorded” stand apart in the source; their conditions may differ.

How the values were obtained:
[1] = test system: SH-SY5Y neuroblastoma cells; conditions: 1-100 μM; 24 hr
Procedure: (§1) Undifferentiated SH-SY5Y human neuroblastoma cells (ATCC, Manasses, Va.) were maintained in humidified 5% CO2 in 1:1 Ham's F12 nutrient mixture with Glutamax® and Minimal Essential Medium with L-glutamine (MEM-Alpha), 10% FBS, and 1% penicillin/streptomycin (Gibco® Invitrogen Corp., Carlsbad, Calif.).
(§2) Cellular viability was measured using CellTiter-Blue® (Promega Corp., Madison, Wis.) in black-walled optical imaging multiwell plates, and cellular ATP was measured using the CellTiter-Glo® (Promega Corp., Madison, Wis.) luminescence assay in opaque-walled multiwell plates according to the manufacturer's protocol.

[2] = test system: models of cell death and NDDs; conditions: compared with pramipexole; cited from earlier work
[3] = test system: cultured hippocampal neurons; conditions: 10 μM, 12 hr pre-treatment
Procedure: as §2, with “Cultured hippocampal neurons were prepared and plated on 96 well plates. […] Cellular” for “Cellular”

[4] = test system: SH-SY5Y neuroblastoma cells; conditions: 30 μM
Procedure: as §1
(§3) OCR and ECAR were measured with a Seahorse® XF24 Flux Analyzer (Seahorse Bioscience, Billerica, Mass.). For PSI experiments on C2C12 cells, basal values were assessed in non-buffered DMEM Assay Medium without glucose, glutamine or pyruvate, and supplemented with 25 mM glucose, 6 mM Glutamax®, and 1 mM sodium pyruvate. […] Succinate and ADP stocks were diluted to 10× concentrations in pre-warmed XF MAS buffer, pH 7.2. Using a Plate Prep Station (Seahorse Bioscience, Billerica, Mass.), cells were washed with 1 mL buffer and were brought to 607 μL with buffer. […] Raw basal OCR and ECAR values were normalized as a percent of the mean control value for each individual experiment. Normalized data from experiments were expressed as mean±SEM.

[5] = test system: G93A-SOD1 mutant mouse model of ALS; conditions: independent laboratory; cited from earlier work
C2C12 cells [6] = conditions: mouse, 18 h, 30 µM
Procedure: (§4) Data are presented as a percentage of the vehicle-treated control ±SEM (n=10 wells at each concentration). […] Experiments commenced 18 hr. after addition of drug. […] Data are presented as a percentage of the vehicle-treated control±SEM (n=14-17 wells for each group).
(§5) The C2C12 mouse myoblast cell line (ATCC, Manasses, Va.) was cultured in Dulbecco's Modified Eagle Medium (DMEM; Gibco®; Carlsbad, Calif.) supplemented with 10% fetal bovine serum (FBS), 2 mM GlutaMax® and penicillin/streptomycin. Cells were maintained in 10% CO2 humidified at 37° C.
as §2

[7] = target: T1, intermediate- and large-conductance channel activity of PSI-mitochondria (Rattus norvegicus, UniProt P19511+Q06647); assay: Patch clamp recording of brain-derived PSI-mitochondria; type: biochemical
T1 sequence (P19511 43-256): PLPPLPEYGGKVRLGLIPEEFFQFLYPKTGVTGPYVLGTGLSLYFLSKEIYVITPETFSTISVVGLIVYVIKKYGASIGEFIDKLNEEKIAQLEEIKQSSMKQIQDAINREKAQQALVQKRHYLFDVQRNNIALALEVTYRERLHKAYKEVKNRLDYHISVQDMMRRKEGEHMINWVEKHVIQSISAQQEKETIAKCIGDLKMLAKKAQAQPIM
T1 sequence (Q06647 24-213): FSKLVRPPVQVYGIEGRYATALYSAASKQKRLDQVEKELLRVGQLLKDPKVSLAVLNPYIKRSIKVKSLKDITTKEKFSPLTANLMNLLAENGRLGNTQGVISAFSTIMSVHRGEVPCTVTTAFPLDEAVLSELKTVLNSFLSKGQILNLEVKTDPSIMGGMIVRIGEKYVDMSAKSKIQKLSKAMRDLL
Procedure: Isolation of Brain-derived Mitochondria. Standard techniques were adapted for isolating brain-derived mitochondria. Mitochondria were stored in isolation buffer (IB) at −80° C. For PSI-mitochondria, male Sprague-Dawley rats (6 wo, ˜200 gm, 3-6 rats/group/condition, at least 2 different preparations/experimental paradigm) were injected with the ubiquitin proteasome inhibitor Z-Ile-Glu(OtBu)-Ala-Leu-al (PSI; Peptides International Inc, Kentucky, USA; s.c. every other day for 1 or 2 weeks; 6.0 mg/kg PSI in DMSO, or with DMSO, 200 μL/rat), and mitochondria isolated and stored as above.
Reagents were rapidly perfused into the recording chamber.

[8] = test system: digitonin-permeabilized cultured cortical neurons
Procedure: Primary rat cortical cultures were incubated with digitonin (10 μg/ml) and rotenone (100 nM) for 45 minutes in MAS1 buffer prior to measurement of oxygen consumption rate (OCR) by a Seahorse® flux analyzer. […] Data are shown as a percentage of the control group OCR±SEM.
Primary cultures of cortical neurons were prepared as described previously, plated at 8×10^5 cells/well for Seahorse XF24 experiments and grown in Neurobasal A supplemented with B27, 1 mM glutamine and penicillin/streptomycin for […] in vitro (DIV). On DIV 7, media without antibiotics was substituted. The cultures were used on DIV 9-10.
as §3

SMVs (F1FO ATP synthase) = SMVs (F1FO ATP synthase) (Rattus norvegicus, UniProt P19511+Q06647); conditions: 20 μM unlabeled dexpramipexole; non-urea treated SMVs; preliminary experiment
Procedure: SMVs were washed twice with IB. Filter units were incubated in Ultima Gold scintillation liquid (Perkin Elmer Health Sciences, Inc.) overnight. Samples were counted for ^14C with a Beckman Coulter LS 5000TD scintillation counter.

[9] = target: human F1FO ATP synthase b subunit (Homo sapiens, UniProt P24539); conditions: co-incubation in 'cold' dexpramipexole (100 μM)
Chain of human F1FO ATP synthase b subunit (P24539 43-256): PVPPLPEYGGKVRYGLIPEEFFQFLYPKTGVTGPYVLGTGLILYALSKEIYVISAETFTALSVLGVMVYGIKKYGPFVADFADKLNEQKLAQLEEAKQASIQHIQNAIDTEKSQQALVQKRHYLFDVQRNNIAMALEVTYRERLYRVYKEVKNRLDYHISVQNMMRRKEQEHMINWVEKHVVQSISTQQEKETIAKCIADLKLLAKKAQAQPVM
Text: The human ORF constructs for alpha, beta, b, c, delta, d, epsilon, gamma and OSCP ATP synthase subunits, tagged with Myc and DDK (Flag) tags were from Origene Technologies (Rockville, Md.). 293T cells were transfected with the above constructs, using the calcium phosphate method (Li et al. 2008). On day-3 post transfection, the cells were lysed and the fusion proteins were bound to the EZview™ Red ANTI-FLAG® M2 Affinity Gel (Sigma, USA), according to the manufacturer's protocol. The proteins were eluted from a portion of the samples and presence of the proteins on the beads was verified by immunoblot analysis, using the mouse anti-Myc antibodyies (Cell signaling Technology). […] They were spun at 3000×g in 0.45 um Spin-X centrifugal devices (Corning Life Sciences, USA) for 10 min. The samples were washed three times with PBS and the filter units were incubated in Ultima Gold scintillation liquid (Perkin Elmer Health Sciences, Inc.) overnight. Samples were counted for ^14C, using a Beckman Coulter LS 5000TD scintillation counter.

[10] = test system: Ca^2+-induced ion conductance in mitochondria; conditions: 2 or 20 μM, in 100 μM Ca^2+
Procedure: Patch-clamp recordings were made from de-energized mitochondria in intracellular solution (120 mM potassium chloride, 8 mM NaCl, 0.5 mM EGTA, 10 mM HEPES, pH adjusted to 7.3) at room temperature (22-25° C.). Pipettes (80-100M0) were filled with the same solution; recordings were made using a Heka 8 amplifier with Vm held at positive voltages up to +180 mV. Data were recorded at 20 kHz and filtered at 500-1000 Hz. […] Reagents were rapidly perfused into the recording chamber. Peak membrane conductance was measured as the peak amount of current (pA) from zero, converted to pS by assuming a linear I-V relationship. Discrete channel conductances were sorted by activity (% occurrence of a conductance level per unit time measured using pCLAMP 10 software, Molecular Devices, Sunnyvale, Calif.); levels defined as closed (no current), small (<200 pS), intermediate (>200 pS and <750 pS) and large (>750 pS). Mean open time (NPo; open time of discrete single channels times the apparent number of single channels in the patch) was used to assess drug effect

C2C12 myoblasts = assay: OCR and ECAR in C2C12 myoblasts (Seahorse); type: cell-based, mouse
Procedure: as §5, §3

C2C12 cells [11] = type: cell-based, mouse; conditions: dexpramipexole 30 μM or PSI 30 nM, 18 hr, relative to control
Procedure: as §4, §5, §2

[12] = 30 μM applied 1 hr prior to recording
[13] = co-incubation of dexpramipexole 30 μM and PSI 30 nM

In the case of CCCN[C@@H]1CCc2nc(N)sc2C1 [dexpramipexole, (6R)-4,5,6,7-tetrahydro-N-6-propyl-2,6-benzothiazole-diamine], the “maximal group increases in ATP levels relative to control” value [1] is listed as ~18%, the protection [2] is listed as “equally protective” and the “increase in ATP levels compared to vehicle-treated cultures” value [3] is listed as 11%. For the same molecule, the “basal oxygen consumption rate (OCR)” value [4] was “modestly decreased”, the in vivo survival [5] was “significantly increased in vivo survival” and the cell viability (C2C12 cells [6]) was “neither ATP levels nor cell viability (FIG. 5b) were significantly affected”. For the same molecule, the “Hill slope of concentration-response curve” value ([7]; NPO inhibition in PSI-mitochondria) was < 1, the “concentration for full inhibition of aberrant currents (EC100)” value ([7]; PSI-mitochondria) was > 10 µM and the “intermediate- and large-conductance channel activity” value ([7]; PSI-mitochondria) was “the inhibition was concentration-dependent and reversible”. The peak conductance ([7]; dexpramipexole 2 μM, CSA 1 μM, PSI-mitochondria) was “significantly and reversibly decreased peak conductance”, the “concentrations producing complete elimination of aberrant currents (EC100)” value ([7]; level stated in discussion) was 10 to 30 µM and the “OCR during succinate incubation” value [8, 12] was “lower OCR”. For the same molecule, the “OCR following an ADP pulse” value [8, 12] was “significantly lower OCR”, the “increase in OCR produced by succinate and following the ADP pulse” value ([8]; acute application 30 μM) was “less than in control cells” and the basal respiration ([8]; acute application 30 μM, rotenone) was “did not affect”. For the same molecule, the “reduction in ^14C-dexpramipexole binding by competition” value (SMVs (F1FO ATP synthase)) was 34%, the “competition of ^14C-dexpramipexole binding to b subunit” value [9] was “significantly reduced binding” and the mitochondrial membrane currents [10] was “effectively decreased”. The ECAR (C2C12 myoblasts; [13]) was “no increase in ECAR”, the OCR (C2C12 myoblasts; [13]) was “significant decrease in OCR” and the OCR (C2C12 myoblasts; dexpramipexole 30 μM or PSI 30 nM alone, 18 hr) was “significant decrease in OCR; also recorded: significantly decreased”. For the same molecule, the ATP levels (C2C12 cells [11]) was “neither ATP levels nor cell viability (FIG. 5b) were significantly affected”.
